Test results from patent US20250221960A1, “COMPOSITIONS AND METHODS FOR THE TREATMENT OF DEPRESSION” (Janssen Pharmaceuticals, Inc., priority 2022, published 2025).

Key:
Type in all cases: in vivo, human
subjects with MDD [1] = experiment: SATE score, Example 1; details: Treatment Week 6, 10 mg
From the text: SATE is a one to three questionnaire administered when the subject is unable to complete other evaluations, i.e., away from the clinical setting such as at home. SATE is useful to evaluate improvement or deterioration of depressive symptoms of the subjects over a short period of time. […] See, Table C.
iv. To investigate the effect of aticaprant on symptoms of depression using the Clinical Global Impression-Severity (CGI-S), the patient reported Symptoms of Major Depressive Disorder Scale (SMDDS) and the self-assessment of treatment experience (SATE).
(§1) • (i) Depression: Montgomery-Åsberg Depression Rating Scale (MADRS), Clinical Global Impression-Severity (CGI-S), Symptoms of Major Depressive Disorder Scale (SMDDS), and Self-assessment of treatment experience (SATE) • (ii) Anhedonia: Snaith-Hamilton Pleasure Scale (SHAPS) • (iii) Anxiety: Structured Interview Guide for the Hamilton Anxiety scale (SIGH-A) and HAM-A6 • (iv) Effects on Cognition: The Cognitive and Physical Functioning Questionnaire (CPFQ) • (v) Safety assessments

subjects with MDD [2] = experiment: HAM-A6 total score (anxiety), Example 1; details: Treatment Week 6
From the text: v. To investigate the effect of aticaprant on symptoms of anxiety using the HAM-A and on core symptoms of anxiety using the HAM-A6 subscale.
as §1

subjects with MDD [3] = experiment: Biomarker signature subtyping of MADRS treatment outcome (Example 4)
Method: Serum or plasma was prepared from the samples of venous blood. Measurements of human CRP and IL-6-R were performed in serum using an MSD Sector 6000 with the kits #K151STD and K151ALC (MesoScale Discovery, Rockville, MD). Human TNFα was quantified in serum using a Simoa HD-1 analyzer with kit #143 (Quanterix, Lexington, MA). Human Dynorphin was assayed in plasma using a SpectraMax M plate reader (Molecular devices, San Jose, CA) with kit #CSB-E09128h (Cusabio, Wuhan, China). All measures were performed according to kit manufacturer's recommendations.
As used in the following biomarker assay analysis, treatment (TRT) refers to treatment with an SSRI/SNRI plus Aticaprant and placebo (PBO) refers to treatment with an SSRI/SNRI plus placebo.
Treatment Outcome: Change in clinical scale at the of end of the double period. Negative values indicate improvement in depression levels relative to baseline levels. The more negative the change, the greater the improvement.
Sig^Pos: Patient meeting the criteria defined by signature of biomarkers and/or clinical scales.
3 MM: Inflammatory biomarker signature with positive status defined by CRP>3 mg/L and (TNFα>4 pg/mL or sIL6R>25 ng/ml).
4 MM: Inflammatory biomarker signature with positive status defined by high dynorphin (δ1) or 3 MM with moderate dynorphin (δ2) subtypes, specifically: DYN>δ1 pg/mL or (DYN>δ2 pg/mL and CRP>3 mg/L and (TNFα>4 pg/ml or sIL6R>25 ng/ml)). In certain embodiments, the 4 MM DYN cutoffs are as follows: Dyn>50 OR (3 MM and Dyn>8); Dyn>24 OR (3 MM and Dyn>8), or Dyn>11.4 and 3 MM.
TE Sig^Pos: Treatment Effect in Signature Positive group: (Average mean MADRS change in placebo-Average mean MADRS change in treatment) in Sig^Pos group.
TE Sig^Neg: Treatment Effect in Signature Negative group.
Sig Adv: Signature Advantage (interaction) Difference in TE between signature groups: Sig Adv=TE Sig^Pos−TE Sig^Neg.
The effect of biomarker signatures on patient response to treatment is summarized in graphical form using two panel box plots in FIG. 25. […] Red color represents placebo and teal represents aticaprant. Rectangular boxes span Diamonds and error bars represent mean and 95% Confidence Interval (CI) of treatment outcome by treatment arm and biomarker signature status. In the signature positive group, the treatment effect (difference in average treatment outcome between treatment arms) was of 6.29 MADRS points (One sided p=0.07, effect size=0.75). While in the signature negative groups, the treatment effect was 1.59 MADRS points. In other words, subjects who are biomarker signature positive improve by an additional 4.7 points […] relative to placebo when treated with aticaprant, compared to subjects who are biomarker signature negative. This signature advantage of 4.7 MADRS points represents the interaction of biomarker signature status with treatment effect. Treatment effects, signature advantage, and corresponding p values are assessed using a linear regression model for treatment outcome with independent variables for treatment, biomarker signature status, and their interaction. All p-values are one sided. Significant is defined as nominal one sided p value <0.05.

`Cc1cc(C)cc(C2CCCN2Cc2ccc(Oc3ccc(C(N)=O)cc3F)cc2)c1` (centres unmarked) [aticaprant, 3-fluoro-4-4-2-(3,5-dimethylphenyl) pyrrolidin-1-yl-methylphenoxybenzamide] was tested, and the “Number of Subjects with SATE Score: Depression Worsened (Much worse)” value (subjects with MDD [1]; n = 0) was 0 subjects, the “Number of Subjects with SATE Score: Depression Worsened (Slightly worse)” value (subjects with MDD [1]; n = 0) was 0 subjects and the “Number of Subjects with SATE Score: Depression Worsened (Very much worse)” value (subjects with MDD [1]; n = 0) was 0 subjects. For the same compound, the “Number of Subjects with SATE Score: Depression Much improved” value (subjects with MDD [1]; n = 21) was 6 subjects, the “Number of Subjects with SATE Score: Depression Slightly improved” value (subjects with MDD [1]; n = 21) was 15 subjects and the “Number of Subjects with SATE Score: Depression Very Much Improved” value (subjects with MDD [1]; n = 21) was 0 subjects. The “Number of Subjects with SATE Score: Overall Depression (Got worse)” value (subjects with MDD [1]; n = 30) was 0 subjects, the “Number of Subjects with SATE Score: Overall Depression (Improved)” value (subjects with MDD [1]; n = 30) was 21 subjects and the “Number of Subjects with SATE Score: Overall Depression (Not changed)” value (subjects with MDD [1]; n = 30) was 9 subjects. The “improvement in HAMA6 score vs. placebo” value (subjects with MDD [2]) was “greater improvement”, the “treatment effect in biomarker signature positive patients” value (subjects with MDD [3]; 3 MM and DYN>δ signature (δ=11.5)) was “very large treatment effect” and the “average aticaprant response in biomarker signature negative patients” value (subjects with MDD [3]; 3 MM or DYN signature negative) was “worse than that of placebo”. The signature advantage (subjects with MDD [3]; 3 MM or high DYN signature, in more than 60% of patients) was 3-8 point, the “signature advantage (TE SigPos - TE SigNeg)” value (subjects with MDD [3]; 3 MM signature) was 4.7 MADRS points and the “effect size in signature positive group” value (subjects with MDD [3]; 3 MM signature positive) was 0.75. The “treatment effect in signature positive group (placebo - treatment MADRS change)” value (subjects with MDD [3]; 3 MM signature positive (21% of MDD), end of double-blind) was 6.3 MADRS points, the “improvement compared to biomarker signature negative counterpart” value (subjects with MDD [3]; 4 MM signature (63% of MDD)) was 6 points and the “MADRS points difference at end DB relative to placebo” value (subjects with MDD [3]; 4 MM signature positive (63% of MDD)) was 4.6 MADRS points. For the same compound, the “treatment effects of 4 MM signatures” value (subjects with MDD [3]; DYN>δ1 or (3 MM and DYN>δ2), range of δ1) was at least 4.5 MADRS points and the “signature advantage of 4 MM signatures” value (subjects with MDD [3]; in 38-63% of patients) was over 5 point.
